Data published in article PMC4398456, “Evidence for a Novel Mechanism of Antimicrobial Action of a Cyclic R-,W-Rich Hexapeptide” (PLoS ONE, 2015).
In brackets after ≈: the same amount, converted by molar mass. Residues, ends and D or L forms follow the SMILES beside them.

Columns and labels:
B. subtilis 168 = assay: Cardiolipin staining with NAO, fluorescence microscopy; assay type: cell-based; conditions: 500 nM NAO 60 min, then 12 μM peptide 30 min, room temperature; 520 and 640 nm
Protocol: Cells were first incubated with the dye for 60 minutes in the dark, at room temperature at 600 rpm (ensuring sufficient aeration). Afterwards, cWFW was added at a final concentration of 12 μM and co-incubated with NAO for another 30 minutes under the same conditions.
Specific staining of CL with NAO has been shown before and is neither influenced by fixation nor depolarisation of the membrane. The emission shift from green to red fluorescence (513 nm to 640 nm) was reported to be exclusive for binding to CL and is caused by narrow stacking of dye molecules. Images were captured using a Zeiss Axiovert M200 inverted fluorescence microscope and an LSM 510 ConfoCor2 (Germany) with plan-apochromat 63, 100×/1.4 objective, respectively, and processed with ImageJ.

[1] = tested on: E. coli L-WF+ (cell wall-deficient L-form, W1655 F+); assay type: cell-based; conditions: microdilution, 96-well, 0.05 to 100 μM peptide, BHI with supplements, OD550 0.4, 18 hours, 37°C; triplicates, at least three independent experiments
Protocol: (§1) For L-form bacteria BHI medium was supplemented with […] penicillin and additional 50 mg/ml sucrose and 30 mg/ml yeast extract in the case of B. subtilis L-170. L-form cells were cultivated as described above using flat bottom glass flasks and OD was measured at 550 nm (OD550 = 1 corresponds to 3.92 × 10^8 CFU/ml L-170 and 9.75 × 10^8 CFU/ml L-WF+).
(§2) To determine the minimal inhibitory peptide concentration (MIC) of bacterial growth we applied a microdilution technique as described previously. Briefly, the antimicrobial activity was tested against L-form bacteria in 96-well plates with final peptide concentrations ranging from 0.05 to 100 μM. Cultures were diluted to OD550 0.4 in BHI containing strain-specific supplements. Cells were grown for 18 hours at 37°C and 180 rpm. Peptide activity was tested in triplicates in at least three independent experiments.

[2] = tested on: B. subtilis L-170 (cell wall-deficient L-form); assay type: cell-based; conditions: microdilution, 96-well, 0.05 to 100 μM peptide, BHI with supplements, OD550 0.4, 18 hours, 37°C; triplicates, at least three independent experiments
Protocol: as §1, §2

ITC binding to LUVs [3] = assay: ITC binding to LUVs; design: species or system E. coli; conditions: 25°C
Protocol: The lipid concentration of E. coli extract preparations was determined from dried lipid films by gravimetric analysis. Liposomes were prepared after resuspension in phosphate buffer and sonication on ice for 25 min under nitrogen stream using a Labsonic L ultrasonicator (B. Braun Biotech, Germany) followed by centrifugation for 5 min at 11000 × g (Eppendorf MiniSpin, Germany) to remove potential titanium debris. The diameter of LUVs from E. coli extract was 90 nm. According to manufacturer's data, E. coli polar lipid extract is a three component mixture containing 71.4% PE-, 23.4% PG-lipids and 5.2% CL (mol%).
(§3) High-sensitivity isothermal titration calorimetry (ITC) experiments to characterise peptide interaction with model membranes were performed at 25°C on a VP-ITC instrument (MicroCall, Malvern Instruments, UK). Binding data were generated as described before. Prior to use, solutions were gently degassed under vacuum. 10 μl aliquots of 5 to 10 mM lipid vesicles were titrated into a 40 μM peptide solution inside the calorimeter cell (1.4 ml) while the reaction mixture was continuously stirred at 307 rpm. Time intervals between injections were adjusted to 10 min which was sufficient for the heat signal to return to baseline level. Automated baseline adjustment and peak integration were accomplished with the public-domain software NITPIC [32].
(§4) Binding parameters, such as hydrophobic partition coefficient (K 0) and enthalpy of binding (ΔH°), were derived by applying a surface partition equilibrium under the specific condition that peptide adsorption is linearly related to the peptide concentration immediately above the membrane surface. This concentration in close proximity to the membrane is determined by electrostatic interactions and depends on the bulk concentration of peptide, peptide charge and membrane surface potential. Negatively charged lipid layers attract cationic peptides. Consequently, the membrane surface concentration is enhanced compared to that in the bulk solution. After binding of cationic peptides to an electrically neutral membrane it becomes positively charged which results in a repulsion of further peptides from the membrane surface. Using the Gouy—Chapman theory which accounts for electrostatic effects, it is possible to calculate the peptide surface concentration and to determine the partition coefficient K 0 [33]. Nonlinear least-squares data fitting was performed with Excel 2010 (Microsoft) using the Solver add-in (Frontline Systems). The Gibbs free energy was calculated according to ΔG° = -RT ln(55.5 M × K 0), where 55.5 M is the molar concentration of water in the aqueous phase. Finally, the entropic contribution to membrane partitioning,-TΔS°, was derived from the Gibbs-Helmholtz equation, ΔG° = ΔH°-TΔS°.

ITC binding to LUVs [4] = conditions: 25°C; for K 0 (hydrophobic partition coefficient): phosphate buffer pH 7.4, surface partition model; for ΔG°: calculated as -RT ln(55.5 M × K 0); for -TΔS°: from Gibbs-Helmholtz equation
Description: Large unilamellar vesicles (LUVs) were used for isothermal titration calorimetry studies and prepared as described before. […] As CL potentially carries two negative charges it was applied at half POPG concentrations to give liposomes with identical surface charge. Subsequently, chloroform was evaporated under nitrogen stream and obtained lipid films were dried under high vacuum for several hours and rehydrated in phosphate buffer by thorough vortexing. The solution was heated 2–3 times in a water bath to 40°C to facilitate resuspension. POPE-LUVs were obtained after 35-fold extrusion through two stacked polycarbonate membranes (100 nm pore size) using a mini extruder (Avestin, Switzerland). The procedure gives vesicles with a diameter of 90–120 nm as determined with dynamic light scattering (DLS) performed on a Zetasizer Nano ZS ZEN 3600 (Malvern Instruments, UK). Large liposomes for dye release experiments were prepared with a solution of 80 mM calcein in 10 mM Tris buffer, 0.1 mM EDTA, pH 7.4 and treated to remove non-incorporated dye as described before.
as §3, §4

B. subtilis DSM 347 = conditions: microdilution; reported before; cited from earlier work
mammalian cells = conditions: cited from earlier work
Description: The structure-activity-relationship of small cyclic R-,W-rich peptides is well characterised. […] With cationic charge and high amphipathicity the cyclic peptide features the structural determinants for membrane activity.

E. coli DH5α = conditions: microdilution; reported before; cited from earlier work
[5] = LUVs of POPC/CL (87.5/12.5 mol%)
[6] = LUVs of POPE/CL (87.5/12.5 mol%)

N=C(N)NCCC[C@@H]1NC(=O)[C@H](CCCNC(=N)N)NC(=O)[C@H](Cc2c[nH]c3ccccc23)NC(=O)[C@H](Cc2ccccc2)NC(=O)[C@H](Cc2c[nH]c3ccccc23)NC(=O)[C@H](CCCNC(=N)N)NC1=O [cWFW] (cyclo(FWRRRW))
effect on NAO fluorescence (cardiolipin staining) (B. subtilis 168): significant decrease in NAO fluorescence intensity at both wavelengths | MIC E. coli L-WF+ [1]: 12 µM (≈ 11.9 µg/mL) | MIC B. subtilis L-170 [2]: 6 µM (≈ 5.93 µg/mL) | ΔH° (ITC binding to LUVs [3]; 10 mM LUVs into 40 μM peptide, γ = 0.6): -3.99 kcal/mol | K 0 (hydrophobic partition coefficient) (ITC binding to LUVs [3]; 10 mM LUVs titrated into 40 μM peptide, phosphate buffer pH 7.4, surface partition model, γ = 0.6): 8.8e+06 M⁻¹ | ΔG° (ITC binding to LUVs [3]; calculated as -RT ln(55.5 M × K 0), LUVs of E. coli extract): -11.9 kcal/mol | -TΔS° (ITC binding to LUVs [3]; from Gibbs-Helmholtz equation, LUVs of E. coli extract): -7.86 kcal/mol | ΔH° (ITC binding to LUVs [4]; 5 mM LUVs into 40 μM peptide, γ = 1): -2.87 kcal/mol | K 0 (hydrophobic partition coefficient) (ITC binding to LUVs [4]; 5 mM LUVs titrated into 40 μM peptide, γ = 1): 5.5e+07 M⁻¹ | ΔH° (ITC binding to LUVs [4]; 10 mM LUVs into 40 μM peptide, γ = 0.5): -1.22 kcal/mol | K 0 (hydrophobic partition coefficient) (ITC binding to LUVs [4]; 10 mM LUVs titrated into 40 μM peptide, γ = 0.5): 3.7e+06 M⁻¹ | K 0 (hydrophobic partition coefficient) (ITC binding to LUVs [4]; 5 to 10 mM LUVs titrated into 40 μM peptide, γ = 0.5): 1.4e+06 M⁻¹ | ΔH° (ITC binding to LUVs [4]; LUVs into 40 μM peptide, γ = 0.5): -5.81 kcal/mol | ΔG° (ITC binding to LUVs [4]; [5]): -10.8 kcal/mol | ΔG° (ITC binding to LUVs [4]; [6]): -12.9 kcal/mol | ΔG° (ITC binding to LUVs [4]; LUVs of POPE/POPG (75/25 mol%)): -11.3 kcal/mol | -TΔS° (ITC binding to LUVs [4]; [5]): -4.95 kcal/mol | -TΔS° (ITC binding to LUVs [4]; [6]): -10.1 kcal/mol | -TΔS° (ITC binding to LUVs [4]; LUVs of POPE/POPG (75/25 mol%)): -10.1 kcal/mol | MIC B. subtilis DSM 347 (B. subtilis DSM 347): 3 µM (≈ 2.96 µg/mL) | toxicity towards mammalian cells (mammalian cells): no toxicity | MIC E. coli DH5α (E. coli DH5α): 3 µM (≈ 2.96 µg/mL)
